Measured values published in US20100137419A1, “ANTI-CANCER AGENT” (WAN STATION CO., LTD., priority 2006, published 2010).

Tests used:
[1] = system: mouse malignant melanoma cell line (B16); assay: Examination of anti-cancer action 1 (without electroporation), cell survival rate with Tetra Color One; type: cell-based; settings: 10 and 100 nM, DMSO 0.1%, without electroporation, 0, 24, 48, 72 hours (FIG. 3)
Experimental: (§1) Subsequently, the cell line contained in each of the samples A0 to A5 was cultured in a CO2 incubator for 24 hours. The temperature in the CO2 incubator was set at 37.0° C., and the concentration of CO2 was set at 5.0%. Thereafter, 10 μl of a cell proliferation test reagent (manufactured by Seikagaku Corp.; product name: Tetra Color One) was added to each sample, and they were reacted in a CO2 incubator for 2 hours. Thereafter, the absorbance at a wavelength of 450 nm (control wavelength: 600 nm) was measured using a microplate reader (manufactured by Bio-Rad Laboratories, Inc.), so as to measure the survival rate of the cell line. The survival rate was measured at time points of 24, 48, and 72 hours after the reaction with the cell proliferation test reagent.
Subsequently, the cell line contained in the samples C0 to C2 were cultured under the same conditions as those described in the “determination of solvent concentration” above, and the cell proliferation test reagent was reacted therewith. Then, the survival rate of the cells was measured at 0, 24, 48, and 72 hours after the reaction.

[2] = heat stability of the rotaxane compound; type: physicochemical
[3] = system: mouse malignant melanoma cell line (B16); assay: Examination of anti-cancer action 2 (with electroporation), cell survival rate with Tetra Color One; type: cell-based; settings: DMSO 0.1%
Experimental: as §1
Thereafter, a DC pulse of 30 V was applied to the electrodes of each cuvette 10 times, so as to perform an electroporation operation.
Subsequently, the cell line contained in the samples D0 to D2 were cultured under the same conditions as those described in the “determination of solvent concentration” above, and the cell proliferation test reagent was reacted therewith. Then, the survival rate of the cells was measured at 0, 24, 48, and 72 hours after the reaction.

- heat stability [2]: relatively heat-stable
Substance: [2][bis (2-(3,5-dimethylphenylcarbonyloxy)ethyl) ammonium trifluoromethanesulfonate]-[dibenzo-24-crown-8] rotaxane
- survival rate / proliferation of cancer cells [1]: has an effect of retarding the proliferation of cancer cells
- survival rate / proliferation of cancer cells ([3]; 10 and 100 nM, electroporation 30 V DC pulse 10 times, 0, 24, 48, 72 hours (FIG. 4)): suppress the proliferation of cancer cells became significant
- survival rate / number of cancer cells over time ([3]; sample D2: 100 nM, electroporation 30 V, 0-72 hours (FIG. 4)): cancer cells were reduced over time
